Assay results: patent US11851712B2, “Replication stress response biomarkers for immunotherapy response” (Board of Regents, The University of Texas System, priority 2018, dated 2023)

Legend:
p21 = test: Western blot of p21 protein; assay type: cell-based, human; conditions: 0.5 μM AZD6244 or 0.1 μM SCH772984 for 48 hours, doxycycline 2 μg/mL
MCF10A shATR cells = test: Stem cell score from gene expression; assay type: cell-based, human; conditions: 48 hours, 0.5 μM AZD6244, MCF10A shATR cells
Method: Microarrays. Microarray analysis was conducted as described previously (Peng et al., 2014). Specifically, total RNA was extracted from the cells 48 hours after plating in presence or absence of doxycycline using a QIAGEN RNeasy RNA isolation kit. Complementary RNA was generated using a TotalPrep RNA amplification kit and loaded onto a HumanHT-12 v4 Expression BeadChip for analysis using the manufacturer's procedure.
Expression signature score. Expression signature scores were computed based on correlation coefficient between the coefficients in the gene signature and corresponding expression level in a given sample (McGrail et al., 2017; van de Vijver et al., 2002), with higher values representing a stronger correlation.

[1] = test system: breast cancer cell lines / MCF10A shATR over-expressing cyclin E; test: Aldehyde dehydrogenase assay (Aldefluor, flow cytometry), CSC depletion; assay type: cell-based, human; conditions: 48 hours, AZD6244 0.5 or 1.0 μM, SCH772984 0.1 or 1.0 μM, MDA-MB-231, MDA-MB-436, MCF7-stem, M158, 4T1
Method: Aldehyde dehydrogenase assay. Aldehyde dehydrogenase was detected using the Aldefluor kit ([…] Technologies) per the manufacturer's instructions. In brief, 1×10^6 cells/mL were incubated with Aldefluor reagent in presence or absence of ALDH inhibitor DEAB for 45 minutes at 37° C. Cells were washed, re-suspended in ALDH buffer, and analyzed by flow cytometry. Positive cells were gated relative to the DEAB-treated negative control. In some instances, cells were treated with AZD6244, SCH772984, or 2 μg/mL doxycycline 48 hours prior to analysis.

[2] = test system: RSRD cells (MCF-10A cyclin E); test: Senescence assay (senescence-associated β galactosidase staining); assay type: cell-based, human; conditions: 0.5 μM AZD6244 (MEKi) or 0.1 μM ERKi (SCH772984) for 48 hours
Method: Senescence assay. shCTRL, shCTRL_cycE, and RSRD cells (5×10^4) were seeded in 6 wells for 48 h prior to treatment with MEK or ERK inhibitors in presence or absence of 2 μg/mL doxycycline to induce cyclin E expression. After the addition of these inhibitors, cells were cultured for another 48 h. Next, a senescence assay was performed using the senescence β-galactosidase staining kit according to the manufacturer's protocol. The percentage of senescent cells was calculated using the ratio of SA-βgal-positive cells to total cells. Mammosphere Formation Assay RSR defect model cells (5000) were seeded in an ultra-low-attachment surface 6-well plate (Corning) in mammosphere medium (50% DMEM, 50% DMEM/F12, […] hydrocortisone, 10 μg/mL insulin, 20 ng/mL recombinant EGF, 100 ng/mL cholera toxin) for 7 days in presence or absence of 2 μg/mL doxycycline to induce cyclin E expression. Spheres with diameters larger than 50 μm were scored as mammospheres.

[3] = test system: 4T1 murine mammary carcinoma; test: 4T1 murine mammary carcinoma in syngeneic mice, combination with anti-PD1; assay type: in vivo; conditions: 25 mg/kg AZD7762 plus 10 mg/kg anti-PD1 (clone RMP1-14), Balb\C mice
Source text: FIG. 18. […] The 4T1 murine mammary carcinoma was implanted into syngeneic (Balb\C) mice and allowed to grow to ˜[…] before randomization.

MDM2 phosphorylation = test: Western blot of MDM2 phosphorylation; assay type: cell-based, human; conditions: 0.1 μM SCH772984 for 48 hours vs DMSO
p53 = test: Western blot of p53 levels; assay type: cell-based, human; conditions: 0.1 μM SCH772984 for 48 hours vs DMSO
ATR = ATR (Homo sapiens, UniProt Q13535); conditions: read-out: kinase inhibition IC50; cited from earlier work
Sequence of ATR (Q13535 whole entry): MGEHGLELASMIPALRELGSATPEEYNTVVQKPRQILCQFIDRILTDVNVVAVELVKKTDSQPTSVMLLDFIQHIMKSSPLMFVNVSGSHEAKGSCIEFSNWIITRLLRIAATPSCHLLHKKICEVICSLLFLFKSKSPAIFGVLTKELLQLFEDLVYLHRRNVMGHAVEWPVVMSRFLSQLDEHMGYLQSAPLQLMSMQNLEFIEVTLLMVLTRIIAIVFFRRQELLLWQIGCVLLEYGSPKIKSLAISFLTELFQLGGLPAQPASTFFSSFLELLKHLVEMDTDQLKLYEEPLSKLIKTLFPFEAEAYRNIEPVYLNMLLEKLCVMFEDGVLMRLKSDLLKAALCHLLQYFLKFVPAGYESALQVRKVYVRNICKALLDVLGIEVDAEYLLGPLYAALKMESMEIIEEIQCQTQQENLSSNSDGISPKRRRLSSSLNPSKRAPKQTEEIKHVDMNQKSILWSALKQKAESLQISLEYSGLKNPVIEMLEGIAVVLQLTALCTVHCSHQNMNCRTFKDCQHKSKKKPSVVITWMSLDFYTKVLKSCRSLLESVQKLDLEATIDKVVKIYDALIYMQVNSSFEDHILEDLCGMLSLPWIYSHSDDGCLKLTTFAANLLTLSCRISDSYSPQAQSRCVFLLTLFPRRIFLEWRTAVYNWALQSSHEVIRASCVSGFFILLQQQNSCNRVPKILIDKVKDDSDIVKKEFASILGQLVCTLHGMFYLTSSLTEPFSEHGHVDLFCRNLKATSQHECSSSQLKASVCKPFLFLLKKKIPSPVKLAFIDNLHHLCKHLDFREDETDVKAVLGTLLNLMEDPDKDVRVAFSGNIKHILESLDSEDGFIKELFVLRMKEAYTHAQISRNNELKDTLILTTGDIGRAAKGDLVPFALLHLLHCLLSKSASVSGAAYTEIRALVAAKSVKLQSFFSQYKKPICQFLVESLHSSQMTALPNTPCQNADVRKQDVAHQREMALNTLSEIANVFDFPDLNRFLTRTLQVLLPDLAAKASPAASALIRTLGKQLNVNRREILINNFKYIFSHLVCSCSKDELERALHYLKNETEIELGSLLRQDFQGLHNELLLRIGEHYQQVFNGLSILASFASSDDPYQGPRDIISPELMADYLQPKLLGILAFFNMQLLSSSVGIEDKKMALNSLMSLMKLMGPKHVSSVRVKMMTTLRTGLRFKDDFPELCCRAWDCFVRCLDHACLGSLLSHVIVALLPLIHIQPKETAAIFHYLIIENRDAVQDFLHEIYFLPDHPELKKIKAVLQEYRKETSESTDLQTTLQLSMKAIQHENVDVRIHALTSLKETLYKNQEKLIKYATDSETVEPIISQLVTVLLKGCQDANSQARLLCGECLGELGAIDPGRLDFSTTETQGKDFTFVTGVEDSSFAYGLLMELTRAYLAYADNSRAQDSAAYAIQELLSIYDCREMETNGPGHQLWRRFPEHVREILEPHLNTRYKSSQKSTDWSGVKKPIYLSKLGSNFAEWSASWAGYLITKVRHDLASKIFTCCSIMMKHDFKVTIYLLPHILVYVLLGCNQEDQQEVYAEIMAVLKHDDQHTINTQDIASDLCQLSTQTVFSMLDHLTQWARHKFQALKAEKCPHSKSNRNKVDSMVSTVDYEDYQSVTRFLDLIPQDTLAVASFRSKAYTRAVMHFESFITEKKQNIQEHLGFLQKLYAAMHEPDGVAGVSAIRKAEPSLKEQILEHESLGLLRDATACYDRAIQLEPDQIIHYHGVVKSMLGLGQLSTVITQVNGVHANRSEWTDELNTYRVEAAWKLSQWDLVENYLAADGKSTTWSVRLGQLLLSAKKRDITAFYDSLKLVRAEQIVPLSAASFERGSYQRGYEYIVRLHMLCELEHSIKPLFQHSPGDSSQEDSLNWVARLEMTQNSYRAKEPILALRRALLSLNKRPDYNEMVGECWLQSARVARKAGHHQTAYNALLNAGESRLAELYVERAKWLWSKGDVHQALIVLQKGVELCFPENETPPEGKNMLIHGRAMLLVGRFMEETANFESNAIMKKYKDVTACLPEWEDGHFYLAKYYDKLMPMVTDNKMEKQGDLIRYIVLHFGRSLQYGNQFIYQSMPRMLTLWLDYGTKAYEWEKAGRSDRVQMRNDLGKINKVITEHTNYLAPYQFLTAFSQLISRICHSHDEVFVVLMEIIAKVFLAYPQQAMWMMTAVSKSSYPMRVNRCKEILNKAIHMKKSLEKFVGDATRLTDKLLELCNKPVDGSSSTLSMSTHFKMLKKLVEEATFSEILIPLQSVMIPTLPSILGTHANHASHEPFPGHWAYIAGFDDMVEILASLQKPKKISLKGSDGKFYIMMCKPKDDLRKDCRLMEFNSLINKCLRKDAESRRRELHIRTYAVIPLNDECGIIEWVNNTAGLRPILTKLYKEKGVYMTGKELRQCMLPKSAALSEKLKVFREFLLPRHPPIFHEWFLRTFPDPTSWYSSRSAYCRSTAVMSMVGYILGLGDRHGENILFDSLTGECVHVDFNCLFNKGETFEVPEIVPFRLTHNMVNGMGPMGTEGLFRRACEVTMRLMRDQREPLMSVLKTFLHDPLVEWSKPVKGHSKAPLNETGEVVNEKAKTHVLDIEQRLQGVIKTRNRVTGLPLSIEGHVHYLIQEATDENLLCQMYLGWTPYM
Sequence of ATR (Q8WXE1 whole entry partner): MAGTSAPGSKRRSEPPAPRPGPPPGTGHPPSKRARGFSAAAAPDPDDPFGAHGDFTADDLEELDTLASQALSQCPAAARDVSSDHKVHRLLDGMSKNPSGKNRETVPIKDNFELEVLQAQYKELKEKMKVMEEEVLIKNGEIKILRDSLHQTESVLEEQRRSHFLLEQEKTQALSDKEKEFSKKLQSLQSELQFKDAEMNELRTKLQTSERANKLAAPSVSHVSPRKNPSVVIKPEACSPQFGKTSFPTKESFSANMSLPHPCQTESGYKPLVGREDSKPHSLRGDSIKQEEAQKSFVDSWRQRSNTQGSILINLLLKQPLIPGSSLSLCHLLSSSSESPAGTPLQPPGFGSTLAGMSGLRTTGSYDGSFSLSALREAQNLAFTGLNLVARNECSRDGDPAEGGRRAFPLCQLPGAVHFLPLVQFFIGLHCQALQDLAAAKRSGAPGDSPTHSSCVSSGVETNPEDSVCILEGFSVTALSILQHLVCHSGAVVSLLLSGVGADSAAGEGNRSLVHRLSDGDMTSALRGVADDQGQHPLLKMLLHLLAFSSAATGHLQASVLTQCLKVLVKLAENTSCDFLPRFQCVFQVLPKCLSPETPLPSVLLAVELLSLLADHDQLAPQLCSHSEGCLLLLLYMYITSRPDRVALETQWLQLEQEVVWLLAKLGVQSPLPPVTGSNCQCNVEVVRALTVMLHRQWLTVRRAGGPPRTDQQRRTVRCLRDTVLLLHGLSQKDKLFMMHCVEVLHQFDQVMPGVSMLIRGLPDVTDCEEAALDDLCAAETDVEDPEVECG

GBM patients = conditions: neoadjuvant treatment, Cloughesy et al. (2019); cited from earlier work

Compound	p21 protein expression (p21)	CSC depletion by aldehyde dehydrogenase (ALDH) positivity [1]	oncogene-induced senescence by staining for senescence-associated β galactosidase [2]	also measured
Cn1cnc2c(F)c(Nc3ccc(Br)cc3Cl)c(C(=O)NOCCO)cc21 [AZD6244]	recovers p21 protein expression	CSCs are depleted	restores oncogene-induced senescence	Stem cell score (MCF10A shATR cells): can reverse the stem-cell phenotype
NC(=O)Nc1cc(-c2cccc(F)c2)sc1C(=O)N[C@H]1CCCNC1 [AZD7762]				tumor growth, sensitization to immunotherapy [3]: sensitizes cells to immunotherapy
O=C(Nc1ccc2[nH]nc(-c3ccncc3)c2c1)[C@@H]1CCN(CC(=O)N2CCN(c3ccc(-c4ncccn4)cc3)CC2)C1 [SCH772984]	recovers p21 protein expression	CSCs are depleted	restores oncogene-induced senescence	MDM2 phosphorylation (MDM2 phosphorylation): suppression of MDM2 phosphorylation; p53 levels (p53): negligible changes in p53 levels
CS(=O)(=O)c1ccc(-c2cnc(N)c(C(=O)Nc3ccccc3)n2)cc1 [VE821]				IC50 (ATR): 15 nM
pembrolizumab: anti-PD-1 antibody described in WO2009/114335				improvement in survival (GBM patients): 6.2 month
